Measurements from patent publication US9486440B2, “Uses of indole-ketones or indolidones as neuro-protective drugs” (UNIVERSITY OF MACAU, priority 2011, dated 2016).

Tests used:
PC12 cells = assay: MPP+-induced neurotoxicity in PC12 cells, MTT assay; type: cell-based; details: for cell proliferative or cytotoxic effects of the drug alone, PC12 cells: alone for 26 hours, 10 μM SU4312, 3 μM PTK787/ZK222584; for toxicity to PC12 cells at higher concentration: data not shown; for MPP+-induced neuronal death in PC12 cells (MTT): pre-treatment 2 hours, then 1 mM MPP+ for 24 hours, SU4312 10 μM, PTK787/ZK222584 3 μM
Method: The human neuroblastoma SH-SY5Y cells were obtained from ATCC. The cells were maintained in supplemented Dulbecco's modified eagle medium (DMEM), 10% fetal bovine serum, 100 U/ml penicillin, and 100 μg/ml streptomycin in a 37° C., 5% CO2 incubator. PC12 pheochromocytoma cells were also obtained from ATCC. The cells were cultured in medium that consisted of DMEM, 10% heat-inactivated horse serum, 5% fetal bovine serum, 100 U/ml penicillin, and 100 μg/ml streptomycin in a 37° C., 5% CO2 incubator. All experiments were carried out 48 hours after the cells were seeded.
The percentage of surviving neurons in the presence of SU4312 and/or MPP^+ was estimated by determining the activity of mitochondrial dehydrogenases with 3(4,5-dimethylthiazol-2-yl)-2.5-diphenyltetrazolium bromide (MTT) assay (Li et al., 2007). The assay was performed according to the specifications of the manufacturer (MTT kit I; Roche Applied Science). Briefly, the neurons were cultured in 96-well plates, 10 μl of 5 mg/ml MTT labeling reagent was added to each well containing cells in 100 μl of medium, and the plates were incubated for 4 hours in a humidified incubator at 37° C. After the incubation, 100 μl of the solvating solution (0.01 N HCl in 10% SDS solution) was added to each well for 16-20 hours. Absorbance of the samples was measured at a wavelength of 570 nm with 655 nm as a reference wavelength. Unless otherwise indicated, the extent of MTT conversion in cells exposed to MPP^+ is expressed as a percentage of the control.

[1] = target: T1, recombinant human endothelial NOS (eNOS) (Homo sapiens, UniProt P29474); assay: In vitro NOS activity assay, eNOS; type: biochemical; details: PTK787/ZK222584 up to 1 mM
T1 construct: purchased Alexis Biochemicals (Lausen, Switzerland)
Method: In the in vitro NOS activity assay (Li et al., 2007), purified recombinant human nNOS, endothelial NOS (eNOS), and inducible NOS (iNOS) were bought from Alexis Biochemicals (Lausen, Switzerland). NOS activity was determined by monitoring the conversion of L-[3H]arginine to [3H]citrulline following the instructions provided in the kit (Calbiochem, USA). The reaction mixture contained a final volume of 40 μl with 25 mM Tris-Cl at pH 7.4, 3 μM tetrahydrobiopterin, 1 μM FAD, 1 μM FMN, 1 mM NADPH, 0.6 mM CaCl2, 0.1 μM calmodulin, 2.5 μg of pure NOS enzyme, 5 μl L-[3H]arginine (Perkin Elmer, Waltham, Mass., USA), and different concentrations of the tested reagents. The reaction mixture was incubated at 22° C. for 45 min. The reaction was quenched by adding 400 μl of stopping buffer (50 mM HEPES, pH 5.5, and 5 mM EDTA) for nNOS and eNOS reactions or by heating reactive tubes for iNOS. Unreacted L-[3H]arginine was then trapped by 100 μl of equilibrated resin provided in a spin cup followed by centrifugation for 30 s at 13,200 rpm. The filtrate was quantified by liquid scintillation counting.

SH-SY5Y cells = assay: MPP+-induced neurotoxicity in SH-SY5Y cells, MTT assay; type: cell-based, human; details: for cell proliferative or cytotoxic effects of the drug alone, SH-SY5Y cells: alone for 26 hours, 10 μM SU4312, 3 μM PTK787/ZK222584, 0.3 μM sunitinib; for toxicity to SH-SY5Y cells at higher concentration: higher concentration (sunitinib 1 μM), data not shown; for MPP+-induced neuronal death in SH-SY5Y cells (MTT): pre-treatment 2 hours, then 1 mM MPP+ for 24 hours
Method: The human neuroblastoma SH-SY5Y cells were obtained from ATCC. The cells were maintained in supplemented Dulbecco's modified eagle medium (DMEM), 10% fetal bovine serum, 100 U/ml penicillin, and 100 μg/ml streptomycin in a 37° C., 5% CO2 incubator. PC12 pheochromocytoma cells were also obtained from ATCC. The cells were cultured in medium that consisted of DMEM, 10% heat-inactivated horse serum, 5% fetal bovine serum, 100 U/ml penicillin, and 100 μg/ml streptomycin in a 37° C., 5% CO2 incubator. All experiments were carried out 48 hours after the cells were seeded. […] The assay was performed according to the specifications of the manufacturer (MTT kit I; Roche Applied Science). […] After the incubation, 100 μl of the solvating solution (0.01 N HCl in 10% SDS solution) was added to each well for 16-20 hours. Absorbance of the samples was measured at a wavelength of 570 nm with 655 nm as a reference wavelength. Unless otherwise indicated, the extent of MTT conversion in cells exposed to MPP^+ is expressed as a percentage of the control.

CGNs = assay: FDA/PI double staining of CGNs after MPP+; type: cell-based, rat; details: 20 μM, 35 μM MPP+
Method: Viable granule neurons were stained with fluorescein formed from fluorescein diacetate (FDA), which is de-esterified only by living cells. Propidium iodide (PI) can penetrate cell membranes of dead cells to intercalate into double-stranded nucleic acids. Briefly, after incubation with 10 μg/ml FDA and 5 μg/ml PI for 15 min, the neurons were examined and photographed using UV light microscopy; and the pictures were compared with those photographed under phase contrast microscopy.
Viable granule neurons were stained with fluorescein formed from fluorescein diacetate (FDA) by esterase in viable cells. Propidium iodide (PI) can penetrate cell membranes of dead cells to intercalate into double-stranded nucleic acids. Briefly, after incubation with 10 μg/ml of FDA and 5 μg/ml of PI for 15 min, the neurons were examined and images were acquired using UV light microscopy for comparison with photos taken under phase contrast microscopy.

[2] = tested on: DA neurons in the zebrafish brain; assay: MPTP zebrafish, whole-mount immunostaining against tyrosine hydroxylase; type: in vivo; details: 200 μM MPTP, 2 days from 1 dpf; SU4312 3-30 μM, PTK787/ZK222584 0.3-3 μM, SU5416 0.1-1 μM, VRI 0.03-0.3 μM
Method: Wild-type zebrafish (AB strain) and Tg (fli-1:EGFP) transgenic zebrafish were maintained as described in the Zebrafish Handbook (Westerfield, 1993). Zebrafish embryos were generated by natural pair-wise mating (3-12 months old) and raised at 28.5° C. in embryo medium (13.7 mM NaCl, 540 μM KCl, pH 7.4, 25 μM Na2HPO4, 44 μM KH2PO4, 300 μM CaCl2, 100 μM MgSO4, 420 μM NaHCO3, pH 7.4). […] An equal concentration of DMSO in embryo medium was used as vehicle control in each experiment.

iNOS protein expression = assay: Western blot of iNOS protein in CGNs after MPP+; type: cell-based, rat; details: 20 μM, 35 μM MPP+
Method: Briefly, neurons were harvested in a cell lysis buffer. Protein was separated on SDS-polyacrylamide gel and transferred onto polyvinyldifluoride membranes. After membrane blocking, proteins were detected using primary antibodies. After incubation at 4° C. overnight, signals were obtained after binding to chemiluminescent secondary antibodies. Blots were developed using an ECL plus kit (Amersham Bioscience, Aylesbury, UK) and exposed to Kodak autoradiographic films. All data were from three independent experiments and were expressed as the ratio to optical density (OD) values of the corresponding controls for statistical analyses.

Compound	cell proliferative or cytotoxic effects of the drug alone, PC12 cells (PC12 cells)	toxicity to PC12 cells at higher concentration (PC12 cells)	MPP+-induced neuronal death in PC12 cells (MTT) (PC12 cells)	inhibition of recombinant human eNOS [1]	cell proliferative or cytotoxic effects of the drug alone, SH-SY5Y cells (SH-SY5Y cells)	toxicity to SH-SY5Y cells at higher concentration (SH-SY5Y cells)	MPP+-induced neuronal death in SH-SY5Y cells (MTT) (SH-SY5Y cells)	MPP+-induced neuronal death in SH-SY5Y cells (MTT) (SH-SY5Y cells; listed as PTK787)	loss of neurons and morphological alterations (FDA/PI, phase contrast) (CGNs)	MPTP-induced loss of DA neurons / decrease of TH+ region area [2]	MPP+-elevated expression of iNOS protein (iNOS protein expression)
Clc1ccc(Nc2nnc(Cc3ccncc3)c3ccccc23)cc1 [PTK787/ZK222584]	did not show cell proliferative or cytotoxic effects	at higher concentration conferred toxicity	at 3 μM failed to block neuronal loss induced by MPP^+	did not inhibit any of the isoforms even at 1 mM	did not show cell proliferative or cytotoxic effects	at higher concentration conferred toxicity	at 3 μM failed to block neuronal loss induced by MPP^+	at 1 and 3 μM failed to block neuronal loss induced by MPP^+			
CN(C)c1ccc(C=C2C(=O)Nc3ccccc32)cc1 [SU4312, 3-[4-(dimethylamino)benzylidenyl]indolin-2-one]	did not show cell proliferative or cytotoxic effects	at higher concentration conferred toxicity	prevented MPP^+-induced dopaminergic neuronal death	no activity against eNOS	did not show cell proliferative or cytotoxic effects	at higher concentration conferred toxicity	prevented MPP^+-induced dopaminergic neuronal death at 3-10 μM in SH-SY5Y cells		significantly blocked MPP^+-induced loss of neurons and reversed MPP^+-induced morphological alterations	significantly alleviated the loss of DA neurons	
Cc1cc(C)c(/C=C2\C(=O)Nc3ccccc32)[nH]1 [SU5416, (3Z)-3-[(3,5-dimethyl-1H-pyrrol-2-yl)methylidene]-1,3-dihydro-2H-indol-2-one]									significantly blocked the loss of neurons and reversed the morphological alteration	significantly prevented the decrease in the area of TH^+ region induced by MPTP	could not affect the elevated expression of iNOS by MPP^+
